Measured values taken from PubChem BioAssay AID256 (DTP/NCI, 2004).
“And” between values parts separate entries of the source, which are not always exact repeats. Identical values can stand only once. Inconclusive results and toxic doses are left out.

System: CD2F1 mice, L1210 leukemia ip, survival T/C
Assay: NCI In Vivo Anticancer Drug Screen. Data for tumor model L1210 Leukemia (intraperitoneal) in CD2F1 (CDF1) mice
Conditions: higher = longer survival
How it was run: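 In this screen, transplantable tumors were grown in mice given either the compound or its vehicle. Results were expressed as the treated measurement relative to the control measurement.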

[1] = endpoint: mean survival time, dose: 100.0 mg/kg/injection, schedule: Q04DX003 (ip), vehicle: saline with Tween-80
[2] = endpoint: mean survival time, dose: 200.0 mg/kg/injection, schedule: Q04DX003 (ip), vehicle: saline with Tween-80
[3] = endpoint: mean survival time, dose: 400.0 mg/kg/injection, schedule: Q04DX003 (ip), vehicle: saline with Tween-80
[4] = endpoint: mean survival time, dose: 100.0 mg/kg/injection, schedule: Q01DX009 (ip), vehicle: saline with Tween-80
[5] = endpoint: mean survival time, dose: 200.0 mg/kg/injection, schedule: Q01DX009 (ip), vehicle: saline with Tween-80
[6] = endpoint: mean survival time, dose: 400.0 mg/kg/injection, schedule: Q01DX009 (ip), vehicle: saline with Tween-80
[7] = endpoint: median survival time, dose: 100.0 mg/kg/injection, schedule: Q04DX003 (ip), vehicle: saline with Tween-80
[8] = endpoint: median survival time, dose: 200.0 mg/kg/injection, schedule: Q04DX003 (ip), vehicle: saline with Tween-80
[9] = endpoint: mean survival time, dose: 50.0 mg/kg/injection, schedule: Q04DX003 (ip), vehicle: saline with Tween-80
[10] = endpoint: mean survival time, dose: 200.0 mg/kg/injection, schedule: Q01DX001 (ip), vehicle: saline
[11] = endpoint: mean survival time, dose: 12.5 mg/kg/injection, schedule: Q01DX009 (ip), vehicle: Klucel (hydroxypropylcellulose) (HPC)
[12] = endpoint: median survival time, dose: 25.0 mg/kg/injection, schedule: Q04DX003 (ip), vehicle: saline with Tween-80

Cc1ccc(S(=O)(=O)Nc2ccc([N+](=O)[O-])cc2OS(=O)(=O)c2ccc(C)cc2)cc1
T/C (endpoint: mean survival time, dose: 100.0 mg/kg/injection, schedule: Q04DX003 (ip), vehicle: alcohol): 100 % of control
T/C (endpoint: mean survival time, dose: 200.0 mg/kg/injection, schedule: Q04DX003 (ip), vehicle: alcohol): 95 % of control
T/C (endpoint: mean survival time, dose: 400.0 mg/kg/injection, schedule: Q04DX003 (ip), vehicle: alcohol): 92 % of control

COc1ccc(OC)c(Cc2cnc3nc(N)nc(N)c3c2C)c1
T/C (endpoint: median survival time, dose: 2.5 mg/kg/injection, schedule: Q01DX009 (ip), vehicle: dextrose): 103 % of control
T/C (endpoint: median survival time, dose: 5.0 mg/kg/injection, schedule: Q01DX009 (ip), vehicle: dextrose): 101 % of control and 102 % of control
T/C (endpoint: median survival time, dose: 6.25 mg/kg/injection, schedule: Q01DX009 (ip), vehicle: water): 95 % of control
T/C (endpoint: median survival time, dose: 10.0 mg/kg/injection, schedule: Q01DX009 (ip), vehicle: dextrose): 101 % of control and 102 % of control
T/C (endpoint: median survival time, dose: 12.5 mg/kg/injection, schedule: Q01DX009 (ip), vehicle: water): 98 % of control
T/C (endpoint: median survival time, dose: 20.0 mg/kg/injection, schedule: Q01DX009 (ip), vehicle: dextrose): 106 % of control and 112 % of control
T/C (endpoint: median survival time, dose: 25.0 mg/kg/injection, schedule: Q01DX009 (ip), vehicle: water): 111 % of control
T/C (endpoint: median survival time, dose: 50.0 mg/kg/injection, schedule: Q01DX009 (ip), vehicle: water): 151 % of control
T/C (endpoint: median survival time, dose: 80.0 mg/kg/injection, schedule: Q01DX009 (ip), vehicle: dextrose): 103 % of control
T/C (endpoint: median survival time, dose: 100.0 mg/kg/injection, schedule: Q01DX009 (ip), vehicle: water): 88 % of control

CN(C)N=Nc1ccccc1C(=O)NCC#N
T/C (endpoint: mean survival time, dose: 18.75 mg/kg/injection, schedule: Q01DX009 (ip), vehicle: Klucel (hydroxypropylcellulose) (HPC)): 100 % of control and 103 % of control
T/C (endpoint: mean survival time, dose: 37.5 mg/kg/injection, schedule: Q01DX009 (ip), vehicle: Klucel (hydroxypropylcellulose) (HPC)): 106 % of control and 107 % of control
T/C (endpoint: mean survival time, dose: 75.0 mg/kg/injection, schedule: Q01DX009 (ip), vehicle: Klucel (hydroxypropylcellulose) (HPC)): 112 % of control
T/C (endpoint: mean survival time, dose: 150.0 mg/kg/injection, schedule: Q01DX009 (ip), vehicle: Klucel (hydroxypropylcellulose) (HPC)): 91 % of control

COC1=C(Br)C(O)C2(C=C1Br)CC(C(=O)NCCCCNC(=O)C1=NOC3(C=C(Br)C(OC)=C(Br)C3O)C1)=NO2 (stereo unspecified)
T/C (endpoint: mean survival time, dose: 50.0 mg/kg/injection, schedule: Q04DX002 (ip), vehicle: saline with Tween-80): 94 % of control
T/C (endpoint: mean survival time, dose: 100.0 mg/kg/injection, schedule: Q04DX002 (ip), vehicle: saline with Tween-80): 94 % of control
T/C (endpoint: mean survival time, dose: 200.0 mg/kg/injection, schedule: Q04DX002 (ip), vehicle: saline with Tween-80): 97 % of control
T/C (endpoint: mean survival time, dose: 400.0 mg/kg/injection, schedule: Q04DX002 (ip), vehicle: saline with Tween-80): 86 % of control

CC(Nc1ccccc1C(=O)O)C(=O)O (stereo unspecified)
T/C [1]: 102 % of control
T/C [2]: 104 % of control
T/C [3]: 104 % of control

NC1=NC2OC(CO)C(O)C2O1 (stereo unspecified)
T/C [4]: 105 % of control
T/C [5]: 100 % of control
T/C [6]: 102 % of control
T/C [7]: 100 % of control
T/C [8]: 100 % of control
T/C (endpoint: median survival time, dose: 400.0 mg/kg/injection, schedule: Q04DX003 (ip), vehicle: saline with Tween-80): 100 % of control

Cc1cc(NC(=O)c2ccc(Cl)cc2)ccc1Cl
T/C [1]: 97 % of control
T/C [2]: 97 % of control
T/C [3]: 106 % of control

CC1CCC(NC2=NCCO2)C(C)C1 (stereo unspecified)
T/C (endpoint: mean survival time, dose: 12.5 mg/kg/injection, schedule: Q01DX009 (ip), vehicle: saline with Tween-80): 105 % of control
T/C (endpoint: mean survival time, dose: 25.0 mg/kg/injection, schedule: Q01DX009 (ip), vehicle: saline with Tween-80): 112 % of control
T/C (endpoint: mean survival time, dose: 25.0 mg/kg/injection, schedule: Q04DX003 (ip), vehicle: saline with Tween-80): 101 % of control
T/C (endpoint: mean survival time, dose: 50.0 mg/kg/injection, schedule: Q01DX009 (ip), vehicle: saline with Tween-80): 101 % of control
T/C [9]: 101 % of control

CCN(CCNc1ccc(C)c2sc3ccccc3c(=O)c12)CC(C)(C)O
T/C [10]: 112 % of control
T/C (endpoint: mean survival time, dose: 400.0 mg/kg/injection, schedule: Q04DX003 (ip), vehicle: saline): 174 % of control

CC(C)c1ccc(C(=O)CCCCl)cc1
T/C [4]: 98 % of control
T/C [5]: 97 % of control
T/C [6]: 97 % of control

C[n+]1c(-c2cccc(-c3ccccc3)c2)c2cc([N+](=O)[O-])ccc2c2ccccc21
T/C (endpoint: mean survival time, dose: 1.56 mg/kg/injection, schedule: Q01DX009 (ip), vehicle: Klucel (hydroxypropylcellulose) (HPC)): 93 % of control
T/C (endpoint: mean survival time, dose: 3.13 mg/kg/injection, schedule: Q01DX009 (ip), vehicle: Klucel (hydroxypropylcellulose) (HPC)): 94 % of control
T/C (endpoint: mean survival time, dose: 6.25 mg/kg/injection, schedule: Q01DX009 (ip), vehicle: Klucel (hydroxypropylcellulose) (HPC)): 98 % of control
T/C [11]: 92 % of control
T/C (endpoint: mean survival time, dose: 25.0 mg/kg/injection, schedule: Q01DX009 (ip), vehicle: Klucel (hydroxypropylcellulose) (HPC)): 96 % of control
T/C (endpoint: mean survival time, dose: 25.0 mg/kg/injection, schedule: Q01DX009 (ip), vehicle: water): 97 % of control

CC1(C)CC2(C)OC2C2(C1)N=NC(=Nc1ccccc1)O2 (stereo unspecified)
T/C (endpoint: median survival time, dose: 25.0 mg/kg/injection, schedule: Q01DX009 (ip), vehicle: saline with Tween-80): 110 % of control
T/C (endpoint: median survival time, dose: 50.0 mg/kg/injection, schedule: Q01DX009 (ip), vehicle: saline with Tween-80): 102 % of control

COc1ccc(-n2cc(C#N)c3c(C)cc(C)nc32)cc1
T/C (endpoint: mean survival time, dose: 100.0 mg/kg/injection, schedule: Q01DX001 (ip), vehicle: saline): 100 % of control
T/C [10]: 96 % of control
T/C (endpoint: mean survival time, dose: 400.0 mg/kg/injection, schedule: Q01DX001 (ip), vehicle: saline): 87 % of control

OCc1ccn2c1CCC2
T/C [11]: 101 % of control
T/C (endpoint: mean survival time, dose: 50.0 mg/kg/injection, schedule: Q01DX009 (ip), vehicle: Klucel (hydroxypropylcellulose) (HPC)): 100 % of control
T/C (endpoint: mean survival time, dose: 100.0 mg/kg/injection, schedule: Q01DX009 (ip), vehicle: Klucel (hydroxypropylcellulose) (HPC)): 101 % of control

O.[Cl][Pt].[S-]CCN1CCOCC1
T/C (endpoint: mean survival time, dose: 12.5 mg/kg/injection, schedule: Q04DX003 (ip), vehicle: distilled water + Tween-80): 96 % of control
T/C (endpoint: mean survival time, dose: 25.0 mg/kg/injection, schedule: Q04DX003 (ip), vehicle: distilled water + Tween-80): 98 % of control
T/C (endpoint: mean survival time, dose: 50.0 mg/kg/injection, schedule: Q04DX003 (ip), vehicle: distilled water + Tween-80): 102 % of control
T/C (endpoint: mean survival time, dose: 100.0 mg/kg/injection, schedule: Q04DX003 (ip), vehicle: distilled water + Tween-80): 98 % of control
T/C (endpoint: mean survival time, dose: 200.0 mg/kg/injection, schedule: Q04DX003 (ip), vehicle: distilled water + Tween-80): 96 % of control

Cc1ccc(S(=O)(=O)F)c(Cl)c1
T/C (endpoint: mean survival time, dose: 50.0 mg/kg/injection, schedule: Q01DX009 (ip), vehicle: saline sonified): 97 % of control
T/C (endpoint: mean survival time, dose: 100.0 mg/kg/injection, schedule: Q01DX009 (ip), vehicle: saline sonified): 97 % of control
T/C (endpoint: mean survival time, dose: 200.0 mg/kg/injection, schedule: Q01DX009 (ip), vehicle: saline sonified): 95 % of control

COC(=O)C1=CCC[N+](C)(C)C1
T/C (endpoint: mean survival time, dose: 1.56 mg/kg/injection, schedule: Q04DX002 (ip), vehicle: saline): 93 % of control
T/C (endpoint: mean survival time, dose: 3.13 mg/kg/injection, schedule: Q04DX002 (ip), vehicle: saline): 93 % of control
T/C (endpoint: mean survival time, dose: 6.25 mg/kg/injection, schedule: Q04DX002 (ip), vehicle: saline): 93 % of control and 105 % of control

COc1ccc(NC(=O)Nc2ccc(F)c(Cl)c2)c(OC)c1
T/C [4]: 97 % of control
T/C [5]: 103 % of control
T/C [6]: 112 % of control

NC(=O)c1ccc(Cl)c(Cl)c1
T/C [4]: 103 % of control
T/C [5]: 103 % of control

O=c1oc(-c2ccc(OCc3ccccc3)c(OCc3ccccc3)c2)c2c3ccccc3ccn12
T/C [12]: 88 % of control
T/C (endpoint: median survival time, dose: 50.0 mg/kg/injection, schedule: Q04DX003 (ip), vehicle: saline with Tween-80): 88 % of control
T/C [7]: 88 % of control
T/C [8]: 100 % of control

[Cl][Pt+2][Cl].[NH-]C(Cc1ccc(O)cc1)C(=O)O.[NH-]C(Cc1ccc(O)cc1)C(=O)O (stereo unspecified)
T/C (endpoint: mean survival time, dose: 12.5 mg/kg/injection, schedule: Q04DX003 (ip), vehicle: saline with Tween-80): 95 % of control
T/C [9]: 97 % of control
T/C [1]: 95 % of control

CCOC(=O)/C=C/C(=O)[O-].CCOC(=O)/C=C/C(=O)[O-].NC1CCCCC1N.[Pt+4]
T/C (endpoint: median survival time, dose: 3.12 mg/kg/injection, schedule: Q04DX003 (ip), vehicle: saline with Tween-80): 101 % of control and 103 % of control
T/C (endpoint: median survival time, dose: 6.25 mg/kg/injection, schedule: Q04DX003 (ip), vehicle: saline with Tween-80): 103 % of control and 108 % of control
T/C (endpoint: median survival time, dose: 12.5 mg/kg/injection, schedule: Q04DX003 (ip), vehicle: saline with Tween-80): 113 % of control and 112 % of control
T/C [12]: 123 % of control
T/C [7]: 164 % of control
T/C [8]: 166 % of control and 333 % of control
